# Reference: patent publication US7807396B2, “Insulin degrading enzyme assays for treatment of alzheimer's disease” (University of Kentucky Research Foundation, priority 2000, dated 2010)
# What was measured:
# neprilysin = test: Neprilysin enzyme activity in rat brain tissue lysates, two-step assay; assay type: in vivo; conditions: 17β-estradiol pellets, 3 weeks
# Description: Adult female Sprague-Dawley rats (approximate weight 300 grams) were used to study the effects of ovariectomy and estradiol supplementation on neprilysin expression levels and activity. […] Ovariectomy was performed at 13 weeks of age and sham-surgery was performed on littermate animals to provide a control group. For estrogen replacement groups, ovariectomized animals were implanted with 17β-estradiol pellets (Innovative Research of America, Sarasota, Fla., USA). Rats were killed 3 weeks later after implantation. The brains were rapidly removed, quickly frozen over dry ice, and stored at −80° C. until father processing. […] The brains were used either for in situ hybridization or for neprilysin activity measurements as noted above.
# In this assay glutaryl-Ala-Phe-4-methoxy-2-naphthylamide is cleaved to glutaryl-Ala-Ala and Phe-4-methoxy-2-naphthylamide. An aminopetidase is then used to cleave the Phe-4-methoxy-2-naphthylamide releasing fluorescent 4-methoxy-2-naphthylamine which is quantified on a spectrofluorometer.
# The tissue lysates were evaluated for neprilysin enzymatic activity using a two-step chromogenic assay. […] The 4-methoxy-2-naphthylamine was quantified spectrofluorimetrically at an excitation wavelength of 340 nm and an emission wavelength of 425 nm. […]
# neprilysin mRNA = test: In situ hybridization of neprilysin mRNA in hippocampus of ovariectomized rats; assay type: in vivo, rat; conditions: 17β-estradiol pellets, 3 weeks
# Text: Using in situ hybridization we administered antisense probes for each of exons 1, 2, 3, and 4 (R1, R2, R3 and R4, respectively) to the brains of ovariectomized rats, some of which also received estrogen replacement therapy. Adult female Sprague-Dawley rats (approximate weight 300 grams) were used to study the effects of ovariectomy and estradiol supplementation on neprilysin expression levels and activity. In situ hybridization was used to measure neprilysin mRNA levels while a coupled chromogenic assay [Li, C. and Hersh, L. B. Neprilysin: Assay Methods, Purification and Characterization. Methods in Enzymology. 248, 253-263 (1995)] was used to measure neprilysin activity. […]
# Images on autoradiographic film were analyzed with computer-aided densitometry (MCID-M1, Imaging Research, St. Catharines, Ontario, Canada). Optical density values of the [^14C] microscales were obtained and a correlating log-log linear least-squares fit was calculated (r^2>0.99). […] The optical density of each defined region was determined for the neuronal somal layer of area CA1 (stratum pyramidale), CA3 and dentate gyrus (stratum granulosum). Identification of brain regions was determined using the atlas of Paxinos and Watson (G. Paxinos, C. Watson, The rat Brain in Stereotaxic Coordinates, second Edition, Academic Press, Australia, 1986).
# [1] = system: primary rat cortical neurons; test: Neuroprotection / neurotoxicity assay in primary rat cortical neurons; assay type: cell-based
# Description: Neurotoxicity assays were performed as described by Estus et. al. (Estus et al. (1997) J Neurosci 17:7736-7745) using embryonic day 18 rat fetuses to establish primary rat cortical neuron cultures. Rat brain cortical cells were initially cultured in AM0 media for 3-5 hrs in 16 well chamber slides (Nalge Nunc International, Rochester, N.Y.) pre-coated with polyethyleneimine at a density of ˜1×10^5 cells per well. The culture was enriched in neurons by replacement of the AM0 media with Dulbecco's modified Eagle's medium (DMEM, Life Technologies, Rockville, Md.) containing 100 units/ml penicillin, 100 μg/ml streptomycin and 2% B27 serum supplement (Life Technologies, Rockville, Md.).
# Cells were treated with Aβ peptides and then fixed with 4% paraformaldehyde for 15 min. at room temperature. After washing the cells with PBS they were then stained with Hoechst 33258 at 1 μg/ml for 10 minutes. Neurons were then visualized by fluorescence microscopy. Those cells with uniformly dispersed chromatin were scored as survivors, while those cells containing condensed chromatin were scored as non-survivors. Readings were typically taken in triplicate with a minimum of 250 neurons scored from each well. Cells treated as described above were visualized using a Nikon microscope equipped with a Hoffman modulation contrast lens. Statistical analysis was performed on the samples using ANOVA.
# To test this, rat cortical neurons were treated with Aβ peptides in the presence and absence of insulysin. Preliminary experiments were performed to obtain a suitable Aβ peptide concentration that would show a significant cytotoxic effect, as there are batch to batch variations in the ability of the Aβ peptides to mediate cytotoxic effects on cells in culture.
# The cell based assay using primary rat cortical neurons was used to determine whether the insulysin cleavage products of the Aβ peptides were themselves neurotoxic. Recombinant insulysin at concentrations ranging from 0.5 to 5000 ng was added simultaneously with the Aβ peptides to the cortical cultures.
# insulysin = target: T1, insulysin (Rattus norvegicus, UniProt P35559); test: Insulysin activity with fluorogenic peptide Abz-[…]-EDDnp; assay type: biochemical; conditions: increasing concentrations of the peptide
# T1 construct: His6 (N); made in house; host or cells: Sf9 cells, baculovirus (pFASTBAC)
# T1 sequence (P35559 whole entry): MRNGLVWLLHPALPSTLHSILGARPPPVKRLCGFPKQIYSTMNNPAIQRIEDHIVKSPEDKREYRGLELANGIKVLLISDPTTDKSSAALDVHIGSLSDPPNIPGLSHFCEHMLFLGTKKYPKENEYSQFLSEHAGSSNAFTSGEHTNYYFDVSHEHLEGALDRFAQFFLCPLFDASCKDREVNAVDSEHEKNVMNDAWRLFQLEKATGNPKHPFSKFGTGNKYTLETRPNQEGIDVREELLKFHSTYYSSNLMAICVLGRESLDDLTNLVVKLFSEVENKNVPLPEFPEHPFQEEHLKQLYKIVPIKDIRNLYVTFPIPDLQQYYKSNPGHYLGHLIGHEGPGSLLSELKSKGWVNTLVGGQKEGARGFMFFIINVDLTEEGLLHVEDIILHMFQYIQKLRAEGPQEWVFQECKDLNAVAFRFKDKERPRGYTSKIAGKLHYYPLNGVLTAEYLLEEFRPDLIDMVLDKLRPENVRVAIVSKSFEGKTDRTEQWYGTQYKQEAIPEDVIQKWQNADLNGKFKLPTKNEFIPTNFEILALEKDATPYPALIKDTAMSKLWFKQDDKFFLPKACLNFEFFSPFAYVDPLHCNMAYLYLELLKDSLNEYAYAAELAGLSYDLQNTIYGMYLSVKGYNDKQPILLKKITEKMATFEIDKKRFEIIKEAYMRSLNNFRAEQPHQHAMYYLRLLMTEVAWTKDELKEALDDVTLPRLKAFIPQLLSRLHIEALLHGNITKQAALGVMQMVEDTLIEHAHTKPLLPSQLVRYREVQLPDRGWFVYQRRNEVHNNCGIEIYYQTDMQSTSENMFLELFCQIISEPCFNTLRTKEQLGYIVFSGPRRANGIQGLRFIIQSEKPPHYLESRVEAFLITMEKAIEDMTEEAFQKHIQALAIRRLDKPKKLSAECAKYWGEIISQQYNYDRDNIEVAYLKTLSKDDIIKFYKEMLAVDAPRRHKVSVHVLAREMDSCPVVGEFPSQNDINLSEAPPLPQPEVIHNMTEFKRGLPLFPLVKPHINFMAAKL
# Description: Referring to FIG. 16, the effect of increasing the concentration of the peptide dynorphin B-9 on insulysin activity is shown. Insulysin activity was measured with the fluorogenic peptide Abz-[…]-EDDnp (SEQ ID No: 14) in the presence of increasing concentrations of the peptide. This peptide contains the fluorescent […] (Abz) which is internally quenched by the 2,4-dinitrophenyl moiety.
# Referring to FIG. 17, the effect of increasing the concentration of several different peptides on insulysin activity is summarized. Insulysin activity was measured with the fluorogenic peptide Abz-[…]-EDDnp (SEQ ID NO: 14) in the presence of increasing concentrations of the peptide.
# pre-aggregated Aβ1-40 = target: T2, pre-aggregated Aβ1-40 (Homo sapiens, UniProt P05067); test: Degradation of pre-aggregated 125I-Aβ1-40 deposited onto synthetic amyloid; assay type: biochemical; conditions: 24 hr incubation with 5 μg of insulysin
# T2 construct: purchased Amersham (125I-Aβ); QCB/BioSource (synthaloid plates)
# Text: During the progression of Alzheimer's disease monomeric Aβ peptides are deposited onto senile plaques. To test whether insulysin is able to prevent the deposition of the Aβ1-40 peptide, a model system was used in which the deposition of radiolabeled Aβ1-40 onto a synthetic amyloid plaque (synthaloid) is followed (Esler et al. (1999) Methods Enzymol 309:350-74). […] We also conducted an experiment in which ^125I-Aβ1-40 was first deposited onto the synthetic amyloid and then treated with insulysin to see if the enzyme could degrade pre-aggregated Aβ1-40.
# Aβ1-40 [2] = target: T3, Aβ1-40 (Homo sapiens, UniProt P05067); test: Rate of cleavage of Aβ1-40 by insulysin; assay type: biochemical; set-up: purchased Bachem (Torrance, Calif.); conditions: 25 μM Aβ1-40
# Description: Purified insulysin was incubated with 25 μM Aβ1-40 in 40 mM potassium phosphate buffer, pH 7.2, at 37° C. for 1 hour. The reaction products were loaded onto a C4 reverse phase HPLC column and products resolved using a linear gradient of 5 to 75% acetonitrile over 65 minutes. Products were detected by absorbance at 214 nm using a Waters 484 detector and individual product peaks were collected manually. Product analysis was also conducted on an intact reaction mixture in which products were not resolved by HPLC. Products were identified by matrix assisted laser desorption ionization time of flight mass spectrometry (MALDI-TOF-MS). The reaction of insulysin with Aβ1-42 was conducted in a similar manner with products identified by MALDI-TOF-MS directly from reaction mixtures.
# Product peaks corresponding to cleavage at the His^13-His^14, His^14-Gln^15, Phe^19-Phe^20 and Phe^20-Ala^21 positions were observed.
# β-endorphin = target: T4, β-endorphin (Homo sapiens, UniProt P01189); test: Insulysin activity determination, disappearance of β-endorphin by HPLC; assay type: biochemical; conditions: 30 μM β-endorphin, 37° C.
# T4 construct: Human β-endorphin1-31; purchased National Institute on Drug Abuse drug supply system
# T4 sequence (P01189 237-267): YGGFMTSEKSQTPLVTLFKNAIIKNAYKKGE
# Description: Materials. […] Solutions were prepared by dissolving the peptide in dimethylsulfoxide (DMSO) to give a stock concentration of 200 μM. The peptide stock was lyophilized and stored at −80° C. until use. The aggregation state of Aβ peptide stock solutions was checked by electron microscopy (Ray et al. (2000) Brain Res 853:344-351) and found to be predominantly, if not exclusively, monomeric. For the in vitro reactions with insulysin, a final concentration of 25 μM Aβ1-40 was obtained after bringing the lyophilized peptide into solution with double distilled water. […] Human β-endorphin1-31, obtained from the National Institute on Drug Abuse drug supply system, was dissolved in water to give a stock solution of 300 μM. Trifluoroacetic acid (Sigma Biochemicals, St. Louis, Mo.) was diluted into water to produce a 5% working solution.
# Insulysin activity was assayed by measuring the disappearance of β-endorphin by isocratic reverse phase HPLC (Safavi et al. (1996) Biochemistry 1996 35:14318-14325). A 100 μl reaction mixture containing 40 mM potassium phosphate buffer, pH 7.2, 30 μM β-endorphin, and enzyme was incubated for 15 minutes at 37° C. […] The β-endorphin peak was detected by absorbance at 214 nm using a Waters 484 detector. The reaction was quantitated by measuring the decrease in the β-endorphin peak area.
# Aβ1-40 [3] = target: T3, Aβ1-40; test: Aβ1-40 deposition assay onto synthetic amyloid (synthaloid); assay type: biochemical; set-up: purchased Amersham (125I-Aβ); QCB/BioSource (synthaloid plates)
# Description: A protocol was used where amyloid beta 1-40 (Aβ1-40) is initially deposited onto a 96 well microtiter plate. Radioactive (^125I labeled) Aβ1-40 is then added to the wells of this plate where it further adds to the Aβ1-40 deposited. This mimics the deposition of Aβ1-40 seen in the brains of Alzheimer patients.
# 96 well plates were pre-coated with Aβ1-40. In the control, 100 pM of ^125I-Aβ1-40 was deposited onto the pre-deposited Aβ1-40 plaque for three hours (lane 1). insulysin was added at concentrations of 500 ng, 50 ng and 5 ng to the wells along with ^125I-Aβ1-40 for three hours (lanes 2 to 4).
# Beta amyloid deposition assays were conducted as described by Esler et. al. (Esler et al. (1997) Nat Biotech 15:268-263). Briefly, 96 well microtiter plates pre-coated with aggregated amyloid β1-40 (QCB/Biosource, Hopkinton, Mass.) were additionally coated with 200 μl of a 0.1% bovine serum albumin solution in 50 mM Tris-HCl, pH 7.5 for 20 minutes to prevent non-specific binding. For measuring Aβ1-40 deposition in the presence or absence of insulysin, a 150 μl solution of 0.1 nM 125I labeled Aβ1-40 in 50 mM Tris-HCl, pH 7.5 was added to the pre-coated well and incubated for four hours. When added, insulysin (0.5 to 500 ng) was placed directly in the well at zero time. The reaction was stopped by washing off excess undeposited radiolabeled Aβ1-40 with 50 mM Tris-HCl, pH 7.5. The radiolabel deposited onto the washed well was counted in a gamma counter. In a variation of this protocol, insulysin was preincubated with ^125 I-Aβ1-40 for 60 minutes and then added to the deposition assay.
# During the progression of Alzheimer's disease monomeric Aβ peptides are deposited onto senile plaques. To test whether insulysin is able to prevent the deposition of the Aβ1-40 peptide, a model system was used in which the deposition of radiolabeled Aβ1-40 onto a synthetic amyloid plaque (synthaloid) is followed (Esler et al. (1999) Methods Enzymol 309:350-74). […]
# [4] = system: rat brain hippocampal neurons; test: Hippocampal cell survival with Aβ1-42 with or without insulysin; assay type: cell-based
# Description: In order to determine whether the insulysin cleavage of Aβ peptides produces products which in themselves are neurotoxic, we conducted experiments using cultured primary hippocampal cells. […] An inactivated form of insulysin was used as a control.
# Viable cells were detected by microscopy.
# Neuronal survival was estimated as a function of time.
compound,measurement,setting,value
"C[C@]12CC[C@@H]3c4ccc(O)cc4CC[C@H]3[C@@H]1CC[C@@H]2O [estrogen, 17β-estradiol]",increase in neprilysin activity in the hippocampus over ovariectomized rats not treated with estrogen,neprilysin,~30%
same,"expression of neprilysin mRNA in the hippocampus, higher than ovariectomized rats without estrogen",neprilysin mRNA,about 300%
Aβ1-40: amyloid beta peptide 1-40 (SEQ ID NO: 12) obtained from Bachem [reference compound],loss of cortical neurons,"[1]; 30 μM Aβ1-40, 48 hrs",approximately 70%
"beta endorphin: peptide, insulysin substrate, found to increase insulysin enzymatic activity",effect on insulysin activity,insulysin,increase insulysin enzymatic activity
dynorphin,effect on insulysin activity,insulysin,increase insulysin enzymatic activity
"insulysin: His6-tagged recombinant rat insulysin (insulin degrading enzyme) expressed in Sf9 cells with baculovirus, purified",release of radioactivity from deposited 125I-Aβ1-40,pre-aggregated Aβ1-40,no radioactivity was released
same,rate of cleavage of Aβ1-40,Aβ1-40 [2],1.2 μmols/min/mg enzyme
same,specific activity,β-endorphin,2.6 μmols/min/mg
same,inhibition of deposition of 125I-Aβ1-40,"Aβ1-40 [3]; 50 ng of insulysin, 100 pM 125I-Aβ1-40, three hours",50%
same,amount able to prevent the deposition of radiolabeled Aβ1-40,"Aβ1-40 [3]; insulysin added with 125I-Aβ1-40 (0.1 nM), 4 hr",50 ng
same,amount able to prevent the deposition of radiolabeled Aβ1-40,"Aβ1-40 [3]; insulysin preincubated with 125I-Aβ1-40 for 60 minutes, 4 hr deposition",50 ng
same,Aβ1-42 induced cell death of hippocampal cells,"[4]; 10 μM Aβ1-42 (initially monomeric), 400 ng insulin degrading enzyme, 24 hrs",prevented Aβ1-42 induced cell death
same,neuronal survival,"[4]; insulysin added with 25 μM Aβ1-42, up to 12 hours",survival was close to that seen in the control untreated cells
same,amount effective in sparing the neurotoxic effects of Aβ1-42,"[1]; 25 μM Aβ1-42, added simultaneously, 48 hrs",500 ng
same,amount effective in sparing the neurotoxic effects of Aβ1-40,"[1]; 30 μM Aβ1-40, added simultaneously, 48 hrs",50 ng
